Source: US11549147B2, “Treatment of atopic dermatitis with tradipitant” (VANDA PHARMACEUTICALS INC., priority 2017, dated 2023)

Test system: chronic pruritus in patients with atopic dermatitis
Experiment: Phase II proof of concept study VP-VLY-686-2101: tradipitant monotherapy vs placebo (Example 1)
Format: in vivo, human
Set-up: key to VAS Worst change / VAS Worst change, Diff / VAS Average change / VAS Average change, Diff: VAS points in mm; VRS change / VRS change, Diff / FBI / FBI, Diff / CGIC / CGIC, Diff: scale not given here
Details: for CGIC / DLQI change / FBI / SCORAD change / VAS Average change / VAS Worst change / VRS change: 100 mg qd evening; for CGIC, Diff / DLQI change, Diff / FBI, Diff / SCORAD change, Diff / VAS Average change, Diff / VAS Worst change, Diff / VRS change, Diff: Diff tradipitant vs placebo
Experimental: A phase II proof of concept clinical study (Study ID VP-VLY-686-2101, “Proof of Concept of VLY-686 in Subjects With Treatment-Resistant Pruritus Associated With Atopic Dermatitis”) is conducted, investigating the safety and efficacy of tradipitant as a monotherapy in the treatment of chronic pruritus in patients with atopic dermatitis.
In the study, patients with a Visual Analog Scale (VAS) score of greater than 70 mm during one of the two days preceding inclusion into the study are randomized to receive orally either 100 mg of tradipitant (n=34) or placebo (n=35) once a day in the evening. In the tradipitant arm of the study, tradipitant is orally administered to patients in capsules with standard excipients in an amount of 100 mg in the evening. Clinical assessments are made after 3 or 4 weeks of daily treatment, or at both 3 weeks and 4 weeks, each assessment being done in the morning of the day after last treatment or in the afternoon of the day after last treatment. The tradipitant is administered in an immediate release form comprising tradipitant and pharmaceutically acceptable excipients in a capsule. The tradipitant particle size is approximately: D10: <5 um, D50: <10 um, and D90: <25 um, wherein Dio means that 10% of the particles are of the indicated mean particle size, D50 means that 50% of the particles are of the indicated mean particle size, and D90 means that 90% of the particles are of the indicated mean particle size.
Baseline VAS scores are 76.1 and 77.2 for the tradipitant and placebo arms respectively. Efficacy is evaluated through a number of clinical research instruments. In addition, at the time of efficacy evaluation blood samples are collected for PK analysis in order to determine the plasma levels of tradipitant.

O=C(c1ccccc1Cl)c1cccnc1-c1nnn(Cc2cc(C(F)(F)F)cc(C(F)(F)F)c2)c1-c1ccncc1 [Tradipitant]
adverse event profile (100 mg qd): mild and similar to placebo | tolerability (100 mg qd): well-tolerated | endpoints corresponding to the underlying disease (SKINDEX, SCORAD objective, EASI and DLQI) vs placebo (100 mg qd, 4-week study): do not show any significant difference from placebo | CGIC (AM group, 3-4 weeks): 2.46 | DLQI change (AM group, 3-4 weeks): −2.52 | FBI (AM group, 3-4 weeks): 1.47 | SCORAD change (AM group, 3-4 weeks): −9.58 | VAS Average change (AM group, 3-4 weeks): −54 | VAS Worst change (AM group, 3-4 weeks): −47.9 | VRS change (AM group, 3-4 weeks): −1.46 | CGIC, Diff (AM group): −1.15 | DLQI change, Diff (AM group): 0.35 | FBI, Diff (AM group): 0.74 | SCORAD change, Diff (AM group): −5.23 | VAS Average change, Diff (AM group): −23.7 | VAS Worst change, Diff (AM group): −21.9 | VRS change, Diff (AM group): −0.79 | CGIC, Diff (PM group): 0.19 | DLQI change, Diff (PM group): −1.89 | FBI, Diff (PM group): −0.39 | SCORAD change, Diff (PM group): 0.88 | VAS Average change, Diff (PM group): 5.82 | VAS Worst change, Diff (PM group): 8.99 | VRS change, Diff (PM group): −0.13 | CGIC (PM group, 3-4 weeks): 2.47 | DLQI change (PM group, 3-4 weeks): −5.45 | FBI (PM group, 3-4 weeks): 1.01 | SCORAD change (PM group, 3-4 weeks): −6.29 | VAS Average change (PM group, 3-4 weeks): −28.8 | VAS Worst change (PM group, 3-4 weeks): −32.3 | VRS change (PM group, 3-4 weeks): −1.29 | improvement from baseline on 100 mm unit Visual Analog Scale (VAS) for itch (all patients, 100 mg once a day in the evening, 3-4 weeks): 40.5 mm
